# What was measured:
# Perennial rye grass = test: Turf grass selectivity, greenhouse pot test; assay type: in vivo
# How it was run: (§1)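 Turf mats transplanted to pots of sandy loam/top soil (1:1), mown weekly to 0.5-1.0 cm and grown one month in greenhouse (25˜30° C. day, 15˜25° C. night). Test chemicals sprayed at 400, 200, 100, 50, 25, 12, 6, 3 g ai/ha in 2,000 L/ha tap-water dilution; three replicates, randomised, averaged.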
# Zoysia japonica = test: Turf grass selectivity, greenhouse pot test; assay type: in vivo; conditions: Zoysia japonica
# How it was run: as §1
# Bentgrass = test: Turf grass selectivity, greenhouse pot test; assay type: in vivo, Agrostris palustris
# How it was run: as §1
# Kentucky bluegrass = test: Turf grass selectivity, greenhouse pot test; assay type: in vivo, Poa pratensis
# How it was run: as §1
# Trifolium repens = test: Weed spectrum, greenhouse pot test; assay type: in vivo; conditions: two weeks after application
# How it was run: (§2)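 Scores reflect visual weed control two weeks after spraying, where 0 means no effect and 100 complete control. Plants grew in a greenhouse at 25˜30° C by day and 15˜25° C by night, with treatment either at sowing or at three-leaf stage.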
# Veronica officinalis = test: Weed spectrum, greenhouse pot test; assay type: in vivo; conditions: two weeks after application
# How it was run: as §2
# Dandelion = test: Weed spectrum, greenhouse pot test; assay type: in vivo; conditions: two weeks after application
compound,measurement,setting,value
"CCOC(=O)c1cnn(C)c1S(=O)(=O)NC(=O)Nc1nc(OC)cc(OC)n1 [Control chemical No. 1, Pyrazosulfuron ethyl, reference compound]",phytotoxicity (visual assessment 0-10),"Perennial rye grass; 3 g ai/ha, 2 weeks",0
same,phytotoxicity (visual assessment 0-10),"Perennial rye grass; 3 g ai/ha, 4 weeks",0
same,phytotoxicity (visual assessment 0-10),"Perennial rye grass; 6 g ai/ha, 2 weeks",0
same,phytotoxicity (visual assessment 0-10),"Perennial rye grass; 6 g ai/ha, 4 weeks",0
same,phytotoxicity (visual assessment 0-10),"Perennial rye grass; 12 g ai/ha, 2 weeks",0
same,phytotoxicity (visual assessment 0-10),"Perennial rye grass; 12 g ai/ha, 4 weeks",0
same,phytotoxicity (visual assessment 0-10),"Perennial rye grass; 25 g ai/ha, 2 weeks",0
same,phytotoxicity (visual assessment 0-10),"Perennial rye grass; 25 g ai/ha, 4 weeks",0
same,phytotoxicity (visual assessment 0-10),"Perennial rye grass; 50 g ai/ha, 2 weeks",0
same,phytotoxicity (visual assessment 0-10),"Perennial rye grass; 50 g ai/ha, 4 weeks",0
same,phytotoxicity (visual assessment 0-10),"Perennial rye grass; 100 g ai/ha, 2 weeks",0
same,phytotoxicity (visual assessment 0-10),"Perennial rye grass; 100 g ai/ha, 4 weeks",0
same,phytotoxicity (visual assessment 0-10),"Perennial rye grass; 200 g ai/ha, 2 weeks",0
same,phytotoxicity (visual assessment 0-10),"Perennial rye grass; 200 g ai/ha, 4 weeks",0
same,phytotoxicity (visual assessment 0-10),"Perennial rye grass; 400 g ai/ha, 2 weeks",1
same,phytotoxicity (visual assessment 0-10),"Perennial rye grass; 400 g ai/ha, 4 weeks",0
same,phytotoxicity (visual assessment 0-10),"Zoysia japonica; 3 g ai/ha, 2 weeks",0
same,phytotoxicity (visual assessment 0-10),"Zoysia japonica; 3 g ai/ha, 4 weeks",0
same,phytotoxicity (visual assessment 0-10),"Zoysia japonica; 6 g ai/ha, 2 weeks",0
same,phytotoxicity (visual assessment 0-10),"Zoysia japonica; 6 g ai/ha, 4 weeks",0
same,phytotoxicity (visual assessment 0-10),"Zoysia japonica; 12 g ai/ha, 2 weeks",0
same,phytotoxicity (visual assessment 0-10),"Zoysia japonica; 12 g ai/ha, 4 weeks",0
same,phytotoxicity (visual assessment 0-10),"Zoysia japonica; 25 g ai/ha, 2 weeks",0
same,phytotoxicity (visual assessment 0-10),"Zoysia japonica; 25 g ai/ha, 4 weeks",0
same,phytotoxicity (visual assessment 0-10),"Zoysia japonica; 50 g ai/ha, 2 weeks",0
same,phytotoxicity (visual assessment 0-10),"Zoysia japonica; 50 g ai/ha, 4 weeks",0
same,phytotoxicity (visual assessment 0-10),"Zoysia japonica; 100 g ai/ha, 2 weeks",0
same,phytotoxicity (visual assessment 0-10),"Zoysia japonica; 100 g ai/ha, 4 weeks",0
same,phytotoxicity (visual assessment 0-10),"Zoysia japonica; 200 g ai/ha, 2 weeks",0
same,phytotoxicity (visual assessment 0-10),"Zoysia japonica; 200 g ai/ha, 4 weeks",0
same,phytotoxicity (visual assessment 0-10),"Zoysia japonica; 400 g ai/ha, 2 weeks",0
same,phytotoxicity (visual assessment 0-10),"Zoysia japonica; 400 g ai/ha, 4 weeks",0
same,phytotoxicity (visual assessment 0-10),"Bentgrass; 3 g ai/ha, 2 weeks",0
same,phytotoxicity (visual assessment 0-10),"Bentgrass; 3 g ai/ha, 4 weeks",0
same,phytotoxicity (visual assessment 0-10),"Bentgrass; 6 g ai/ha, 2 weeks",0
same,phytotoxicity (visual assessment 0-10),"Bentgrass; 6 g ai/ha, 4 weeks",0
same,phytotoxicity (visual assessment 0-10),"Bentgrass; 12 g ai/ha, 2 weeks",0
same,phytotoxicity (visual assessment 0-10),"Bentgrass; 12 g ai/ha, 4 weeks",0
same,phytotoxicity (visual assessment 0-10),"Bentgrass; 25 g ai/ha, 2 weeks",0
same,phytotoxicity (visual assessment 0-10),"Bentgrass; 25 g ai/ha, 4 weeks",0
same,phytotoxicity (visual assessment 0-10),"Bentgrass; 50 g ai/ha, 2 weeks",0
same,phytotoxicity (visual assessment 0-10),"Bentgrass; 50 g ai/ha, 4 weeks",0
same,phytotoxicity (visual assessment 0-10),"Bentgrass; 100 g ai/ha, 2 weeks",1
same,phytotoxicity (visual assessment 0-10),"Bentgrass; 100 g ai/ha, 4 weeks",0
same,phytotoxicity (visual assessment 0-10),"Bentgrass; 200 g ai/ha, 2 weeks",2
same,phytotoxicity (visual assessment 0-10),"Bentgrass; 200 g ai/ha, 4 weeks",0
same,phytotoxicity (visual assessment 0-10),"Bentgrass; 400 g ai/ha, 2 weeks",3
same,phytotoxicity (visual assessment 0-10),"Bentgrass; 400 g ai/ha, 4 weeks",1
same,phytotoxicity (visual assessment 0-10),"Kentucky bluegrass; 3 g ai/ha, 2 weeks",0
same,phytotoxicity (visual assessment 0-10),"Kentucky bluegrass; 3 g ai/ha, 4 weeks",0
same,phytotoxicity (visual assessment 0-10),"Kentucky bluegrass; 6 g ai/ha, 2 weeks",0
same,phytotoxicity (visual assessment 0-10),"Kentucky bluegrass; 6 g ai/ha, 4 weeks",0
same,phytotoxicity (visual assessment 0-10),"Kentucky bluegrass; 12 g ai/ha, 2 weeks",0
same,phytotoxicity (visual assessment 0-10),"Kentucky bluegrass; 12 g ai/ha, 4 weeks",0
same,phytotoxicity (visual assessment 0-10),"Kentucky bluegrass; 25 g ai/ha, 2 weeks",0
same,phytotoxicity (visual assessment 0-10),"Kentucky bluegrass; 25 g ai/ha, 4 weeks",0
same,phytotoxicity (visual assessment 0-10),"Kentucky bluegrass; 50 g ai/ha, 2 weeks",0
same,phytotoxicity (visual assessment 0-10),"Kentucky bluegrass; 50 g ai/ha, 4 weeks",0
same,phytotoxicity (visual assessment 0-10),"Kentucky bluegrass; 100 g ai/ha, 2 weeks",0
same,phytotoxicity (visual assessment 0-10),"Kentucky bluegrass; 100 g ai/ha, 4 weeks",0
same,phytotoxicity (visual assessment 0-10),"Kentucky bluegrass; 200 g ai/ha, 2 weeks",1
same,phytotoxicity (visual assessment 0-10),"Kentucky bluegrass; 200 g ai/ha, 4 weeks",0
same,phytotoxicity (visual assessment 0-10),"Kentucky bluegrass; 400 g ai/ha, 2 weeks",2
same,phytotoxicity (visual assessment 0-10),"Kentucky bluegrass; 400 g ai/ha, 4 weeks",1
same,efficacy (0-100 scale),"Trifolium repens; Post-emergence, 12 g ai/ha",20
same,efficacy (0-100 scale),"Trifolium repens; Post-emergence, 25 g ai/ha",60
same,efficacy (0-100 scale),"Trifolium repens; Post-emergence, 50 g ai/ha",70
same,efficacy (0-100 scale),"Trifolium repens; Post-emergence, 100 g ai/ha",80
same,efficacy (0-100 scale),"Trifolium repens; Pre-emergence, 12 g ai/ha",40
same,efficacy (0-100 scale),"Trifolium repens; Pre-emergence, 25 g ai/ha",60
same,efficacy (0-100 scale),"Trifolium repens; Pre-emergence, 50 g ai/ha",70
same,efficacy (0-100 scale),"Trifolium repens; Pre-emergence, 100 g ai/ha",70
same,efficacy (0-100 scale),"Veronica officinalis; Post-emergence, 12 g ai/ha",10
same,efficacy (0-100 scale),"Veronica officinalis; Post-emergence, 25 g ai/ha",20
same,efficacy (0-100 scale),"Veronica officinalis; Post-emergence, 50 g ai/ha",30
same,efficacy (0-100 scale),"Veronica officinalis; Post-emergence, 100 g ai/ha",30
same,efficacy (0-100 scale),"Veronica officinalis; Pre-emergence, 12 g ai/ha",0
same,efficacy (0-100 scale),"Veronica officinalis; Pre-emergence, 25 g ai/ha",20
same,efficacy (0-100 scale),"Veronica officinalis; Pre-emergence, 50 g ai/ha",30
same,efficacy (0-100 scale),"Veronica officinalis; Pre-emergence, 100 g ai/ha",40
same,efficacy (0-100 scale),"Dandelion; Post-emergence, 12 g ai/ha",80
same,efficacy (0-100 scale),"Dandelion; Post-emergence, 25 g ai/ha",90
same,efficacy (0-100 scale),"Dandelion; Post-emergence, 50 g ai/ha",100
same,efficacy (0-100 scale),"Dandelion; Post-emergence, 100 g ai/ha",100
same,efficacy (0-100 scale),"Dandelion; Pre-emergence, 12 g ai/ha",70
same,efficacy (0-100 scale),"Dandelion; Pre-emergence, 25 g ai/ha",80
same,efficacy (0-100 scale),"Dandelion; Pre-emergence, 50 g ai/ha",90
same,efficacy (0-100 scale),"Dandelion; Pre-emergence, 100 g ai/ha",100

# Reference: patent US20100035755A1, “METHOD OF CONTROLLING WEEDS IN A TURF GRASS BY USING SULFONYLUREA COMPOUNDS” (Moghu Research Center Ltd., priority 2008, published 2010)
